Results published in ChEMBL document CHEMBL1150212, “Antitumor agents, 129. Tannins and related compounds as selective cytotoxic agents” (1992).
*1 amine or outer side, *2 acyl side, *3 side chain or, on linkers, in order; H or OH if unused. Where a SMILES comes first, the peptide text is derived from it. Bridges are numbered along the chain shown (N, C = ends). Roman numbers before positions name the chains, in order. [ ]: non-standard residue; d: D form. Actinocin(1to9) = Cc1c2oc3c(C)ccc(C(=O)[*:2])c3nc-2c(C(=O)[*:1])c(N)c1=O; NMeV = CN[C@H](C(=O)O)C(C)C; Sar = CNCC(=O)O

Experiments:
Format in all cases: functional
Conditions in all cases: read-out: ED50 (the source's name)
[1] = Cytotoxicity against human […] cells by tetrazolium salt-based colorimetric assay
KB = experiment: Cytotoxicity against human KB cells by tetrazolium salt-based colorimetric assay
A549 = experiment: Cytotoxicity against human A549 cells by tetrazolium salt-based colorimetric assay
HCT-8 = experiment: Cytotoxicity against human HCT8 cells by tetrazolium salt-based colorimetric assay
TE-671 = experiment: Cytotoxicity against human TE671 cells by tetrazolium salt-based colorimetric assay

In the case of `Oc1cc(O)c2c(c1)O[C@@]1(c3ccc(O)c(O)c3)Oc3cc(O)c4c(c3[C@@H]2[C@H]1O)O[C@H](c1ccc(O)c(O)c1)[C@H](O)C4` [PROANTHOCYANIDIN A2], the EC50 [1] is reported as 5.5 µg/mL, the EC50 (KB) is reported as > 10 µg/mL and the EC50 (A549) is reported as > 10 µg/mL. The EC50 (HCT-8) was > 10 µg/mL and the EC50 (TE-671) was > 10 µg/mL.
With `O=C(O[C@@H]1O[C@@H]2COC(=O)c3cc(O)c(O)c(O)c3-c3c(cc(O)c(O)c3O)C(=O)O[C@H]([C@H]1O)[C@@H]2O)c1cc(O)c(O)c(O)c1` [CORILAGIN] the EC50 [1] was > 10 µg/mL, the EC50 (KB) was > 10 µg/mL and the EC50 (A549) was > 10 µg/mL. The EC50 (HCT-8) was > 10 µg/mL and the EC50 (TE-671) was > 10 µg/mL.
In the case of `O=C(OC[C@H]1O[C@@H](OC(=O)c2cc(O)c(O)c(O)c2)[C@H](O)[C@@H](O)[C@@H]1OC(=O)c1cc(O)c(O)c(O)c1)c1cc(O)c(O)c(O)c1`, the EC50 [1] is reported as > 10 µg/mL, the EC50 (KB) is reported as > 10 µg/mL and the EC50 (A549) is reported as > 10 µg/mL. The EC50 (HCT-8) was > 10 µg/mL and the EC50 (TE-671) was > 10 µg/mL.
For `Cc1c2oc3c(C)ccc(C(=O)N[C@@H]4C(=O)N[C@H](C(C)C)C(=O)N5CCC[C@H]5C(=O)N(C)CC(=O)N(C)[C@@H](C(C)C)C(=O)O[C@@H]4C)c3nc-2c(C(=O)N[C@@H]2C(=O)N[C@H](C(C)C)C(=O)N3CCC[C@H]3C(=O)N(C)CC(=O)N(C)[C@@H](C(C)C)C(=O)O[C@@H]2C)c(N)c1=O` [DACTINOMYCIN] (I: T[dV]P[Sar][NMeV] / II: T[dV]P[Sar][NMeV]; ester I:1-I:C, II:1-II:C; linker I:N-II:N via Actinocin(1to9)), the EC50 [1] was < 0.01 µg/mL.
In the case of `O=C1OC[C@H]2OC(=O)c3cc(O)c(O)c(O)c3-c3c(O)c(O)c(O)c4c3C(=O)O[C@H]([C@H]3OC(=O)C5C4=C(O)C(=O)C54Oc5cc(O)c6c(c5[C@H]34)O[C@H](c3ccc(O)c(O)c3)[C@@H](O)C6)[C@@H]2OC(=O)c2cc(O)c(O)c(O)c2-c2c1cc(O)c(O)c2O` [MONGOLICAIN A], the EC50 [1] is reported as > 10 µg/mL, the EC50 (KB) is reported as > 10 µg/mL and the EC50 (A549) is reported as > 10 µg/mL. For the same molecule, the EC50 (HCT-8) was > 10 µg/mL and the EC50 (TE-671) was > 10 µg/mL.
In the case of `Oc1cc(O)c2c(c1)O[C@H](c1ccc(O)c(O)c1)[C@H](O)[C@H]2c1c(O)cc(O)c2c1O[C@H](c1ccc(O)c(O)c1)[C@H](O)C2` [PROCYANIDIN B2], the EC50 [1] is reported as > 10 µg/mL, the EC50 (KB) is reported as > 10 µg/mL and the EC50 (A549) is reported as > 10 µg/mL. The EC50 (HCT-8) was > 10 µg/mL and the EC50 (TE-671) was > 10 µg/mL.
In the case of `O=C1OCC2OC(=O)c3cc(O)c(O)c(O)c3-c3c(O)c(O)c(O)c4c3C(=O)OC(C2OC(=O)c2cc(O)c(O)c(O)c2-c2c1cc(O)c(O)c2O)C1OC(=O)c2c-4c(O)c(O)c(O)c2C1O` (stereo unspecified) [VESCALAGIN], the EC50 [1] is reported as 0.58 µg/mL, the EC50 (KB) is reported as > 10 µg/mL and the EC50 (A549) is reported as > 10 µg/mL. The EC50 (HCT-8) was > 10 µg/mL and the EC50 (TE-671) was > 10 µg/mL.
With `O=C(O[C@@H]1Cc2c(O)cc(O)cc2O[C@@H]1c1ccc(O)c(O)c1)c1cc(O)c(O)c(O)c1` [EPICATECHIN GALLATE] the EC50 [1] was 0.55 µg/mL, the EC50 (KB) was > 10 µg/mL and the EC50 (A549) was > 10 µg/mL. For the same molecule, the EC50 (HCT-8) was > 10 µg/mL and the EC50 (TE-671) was > 10 µg/mL.
In the case of `O=C(OC[C@H]1O[C@@H](OC(=O)c2cc(O)c(O)c(O)c2)[C@H](OC(=O)c2cc(O)c(O)c(O)c2)[C@@H](O)[C@@H]1O)c1cc(O)c(O)c(O)c1`, the EC50 [1] is reported as > 10 µg/mL, the EC50 (KB) is reported as > 10 µg/mL and the EC50 (A549) is reported as > 10 µg/mL. The EC50 (HCT-8) was > 10 µg/mL and the EC50 (TE-671) was > 10 µg/mL.
For `O=C(O[C@H]1[C@H](O)C[C@](O)(C(=O)O)C[C@H]1O)c1cc(O)c(O)c(O)c1`, the EC50 [1] was > 10 µg/mL, the EC50 (KB) was > 10 µg/mL and the EC50 (A549) was > 10 µg/mL. For the same molecule, the EC50 (HCT-8) was > 10 µg/mL and the EC50 (TE-671) was > 10 µg/mL.
With `O=C(OC[C@H]1O[C@@H](OC(=O)c2cc(O)c(O)c(O)c2)[C@H](OC(=O)c2cc(O)c(O)c(O)c2)[C@@H](OC(=O)c2cc(O)c(O)c(O)c2)[C@@H]1O)c1cc(O)c(O)c(O)c1` the EC50 [1] was > 10 µg/mL, the EC50 (KB) was > 10 µg/mL and the EC50 (A549) was > 10 µg/mL. For the same molecule, the EC50 (HCT-8) was > 10 µg/mL and the EC50 (TE-671) was > 10 µg/mL.
In the case of `O=C(O[C@@H]1O[C@@H]2COC(=O)c3cc(O)c(O)c(O)c3-c3c(cc(O)c(O)c3O)C(=O)O[C@H]([C@H]1OC(=O)c1cc(O)c(O)c(O)c1)[C@@H]2OC(=O)c1cc(O)c(O)c(O)c1)c1cc(O)c(O)c(O)c1` [PUNICAFOLIN], the EC50 [1] is reported as > 10 µg/mL, the EC50 (KB) is reported as > 10 µg/mL and the EC50 (A549) is reported as > 10 µg/mL. The EC50 (HCT-8) was > 10 µg/mL and the EC50 (TE-671) was > 10 µg/mL.
For `O=C(O[C@@H]1O[C@@H]2COC(=O)c3cc(O)c(O)c(O)c3-c3c(cc(Oc4c(C(=O)O)cc(O)c(O)c4O)c(O)c3O)C(=O)O[C@H]([C@H]1O)[C@@H]2O)c1cc(O)c(O)c(O)c1` [MALLOTINIC ACID], the EC50 [1] was > 10 µg/mL, the EC50 (KB) was > 10 µg/mL and the EC50 (A549) was > 10 µg/mL. For the same molecule, the EC50 (HCT-8) was > 10 µg/mL and the EC50 (TE-671) was > 10 µg/mL.
In the case of `O=C1O[C@H]2[C@H](OC(=O)c3cc(O)c(O)c(O)c3)[C@@H](OC(=O)c3cc(O)c(O)c4c3[C@@H]3C1=CC(=O)C(O)(O)C3(O)O4)[C@H](OC(=O)c1cc(O)c(O)c(O)c1)O[C@@H]2COC(=O)c1cc(O)c(O)c(O)c1` (stereo partly specified) [TERCHEBIN], the EC50 [1] is reported as > 10 µg/mL, the EC50 (KB) is reported as > 10 µg/mL and the EC50 (A549) is reported as > 10 µg/mL. For the same molecule, the EC50 (HCT-8) was > 10 µg/mL and the EC50 (TE-671) was > 10 µg/mL.
With `O=C(O[C@@H]1O[C@@H]2COC(=O)c3cc(O)c(O)c(O)c3-c3c(cc(O)c(O)c3O)C(=O)O[C@H]2[C@H](O)[C@H]1O)c1cc(O)c(O)c(O)c1` [STRICTININ] the EC50 [1] was 4.86 µg/mL, the EC50 (KB) was > 10 µg/mL and the EC50 (A549) was > 10 µg/mL. The EC50 (HCT-8) was > 10 µg/mL and the EC50 (TE-671) was > 10 µg/mL.
